*1 amine or outer side, *2 acyl side, *3 side chain or, on linkers, in order; H or OH if unused. Where a SMILES comes first, the peptide text is derived from it. Side-chain parts run from the residue outwards. [ ]: non-standard residue; d: D form. The star is where a group is joined. Isobutyryl(2-(3-CN-5-F-Ph)) = CC(C)(C(=O)*)c1cc(F)cc(C#N)c1; C20 diacid = O=C(O)CCCCCCCCCCCCCCCCCCC(=O)*; γGlu = O=C(O)[C@H](CCC(=O)[*:2])N[*:1]; X17 = CC(C)(C(=O)*)c1ccc(F)c(F)c1; X27 = O=C1CC(C(=O)*)(c2ccccc2)CN1; NMeβAla = CN(CCC(=O)[*:2])[*:1]; X45 = CC(Cn1cc(Br)cn1)NCCC(=O)*; β3hE = N[C@@H](CCC(=O)O)CC(=O)O; AEEA = NCCOCCOCC(=O)O; Aib = CC(C)(N)C(=O)O; βAla = NCCC(=O)O
Key:
Type in all cases: cell-based
GLP-1 receptor [1] = biological target: T1, GLP-1 receptor (Homo sapiens, UniProt P43220); assay: PathHunter β-arrestin assay, GLP-1 receptor; design: host or cells: PathHunter CHO-K1 GLP1R β-Arrestin Cell Line; conditions: β-arrestin-2 recruitment, PathHunter CHO-K1 GLP1R β-Arrestin Cell Line, 90 min at 37° C.; normalized to GLP-1; read-out: GLP-1R β Arrestin EC50
GIP receptor [2] = biological target: T2, GIP receptor (Homo sapiens, UniProt P48546); assay: PathHunter β-arrestin assay, GIP receptor; design: host or cells: PathHunter CHO-K1 GIPR β-Arrestin Cell Line; conditions: β-arrestin-2 recruitment, PathHunter CHO-K1 GIPR β-Arrestin Cell Line, 90 min at 37° C.; normalized to GIP; read-out: GIPR β Arrestin EC50
T2 sequence (P48546 22-466): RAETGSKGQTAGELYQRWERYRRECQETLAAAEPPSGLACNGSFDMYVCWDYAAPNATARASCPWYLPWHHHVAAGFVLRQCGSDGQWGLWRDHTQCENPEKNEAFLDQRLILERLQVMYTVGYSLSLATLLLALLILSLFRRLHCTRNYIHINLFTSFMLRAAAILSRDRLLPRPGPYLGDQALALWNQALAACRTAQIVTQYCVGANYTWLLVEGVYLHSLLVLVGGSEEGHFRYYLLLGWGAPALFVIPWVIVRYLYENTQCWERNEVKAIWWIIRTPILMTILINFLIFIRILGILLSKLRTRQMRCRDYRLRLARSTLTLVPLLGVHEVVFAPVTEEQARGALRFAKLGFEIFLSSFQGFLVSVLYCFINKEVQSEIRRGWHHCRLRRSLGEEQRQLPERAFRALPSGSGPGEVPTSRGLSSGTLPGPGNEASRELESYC

GLP-1 receptor [3] = biological target: T1, GLP-1 receptor; assay: HitHunter cAMP assay, GLP-1 receptor; conditions: for EC50: CHO cells stably expressing human GLP-1 receptor, cAMP accumulation, 30 min, read-out: EC50 GLP-1R; for Emax: CHO cells, cAMP, normalized to maximum signal from GLP-1 (high) and DMSO (low), read-out: Emax GLP-1R
GIP receptor [4] = biological target: T2, GIP receptor; assay: HitHunter cAMP assay, GIP receptor; conditions: for EC50: CHO cells stably expressing GIP receptor, cAMP accumulation, 30 min, read-out: EC50 GIP-1R; for Emax: CHO cells, cAMP, normalized to maximum signal from GIP (high) and DMSO (low), read-out: Emax GIP-1R

T1 sequence (P43220 24-463): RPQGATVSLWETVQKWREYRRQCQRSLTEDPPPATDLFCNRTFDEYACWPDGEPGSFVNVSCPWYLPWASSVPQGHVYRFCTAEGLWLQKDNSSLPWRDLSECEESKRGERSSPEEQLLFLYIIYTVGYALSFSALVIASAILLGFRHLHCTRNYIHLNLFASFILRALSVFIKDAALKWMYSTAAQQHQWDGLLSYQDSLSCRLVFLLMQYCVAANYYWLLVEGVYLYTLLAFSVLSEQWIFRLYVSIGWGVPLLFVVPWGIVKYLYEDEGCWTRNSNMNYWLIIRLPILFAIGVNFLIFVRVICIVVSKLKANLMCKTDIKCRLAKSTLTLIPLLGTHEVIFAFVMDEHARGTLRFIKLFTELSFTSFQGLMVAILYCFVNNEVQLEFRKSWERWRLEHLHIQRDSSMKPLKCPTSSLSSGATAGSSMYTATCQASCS

CC[C@H](C)[C@H](NC(=O)[C@H](CC(C)C)NC(=O)[C@H](Cc1c[nH]c2ccccc12)NC(=O)[C@H](CCC(N)=O)NC(=O)[C@@H](NC(=O)[C@H](Cc1ccccc1)NC(=O)[C@H](C)NC(=O)[C@H](CCCCNC(=O)COCCOCCNC(=O)COCCOCCNC(=O)CC[C@H](NC(=O)CCCCCCCCCCCCCCCCCCC(=O)O)C(=O)O)NC(=O)[C@H](CCC(N)=O)NC(=O)[C@H](C)NC(=O)[C@@H](NC(=O)[C@H](CCCCN)NC(=O)[C@H](CC(=O)O)NC(=O)[C@H](CC(C)C)NC(=O)C(C)(C)NC(=O)[C@@H](NC(=O)[C@H](CO)NC(=O)[C@H](Cc1ccc(O)cc1)NC(=O)[C@H](CC(=O)O)NC(=O)[C@H](CO)NC(=O)[C@@H](NC(=O)[C@H](Cc1ccccc1)NC(=O)[C@@H](NC(=O)CNC(=O)[C@H](CCC(=O)O)NC(=O)CCN(C)C(=O)C(C)(C)c1cc(F)cc(C#N)c1)[C@@H](C)O)[C@@H](C)O)[C@@H](C)CC)[C@@H](C)CC)C(C)C)C(=O)N[C@@H](C)C(=O)NCC(=O)NCC(=O)N1CCC[C@H]1C(=O)N[C@@H](CO)C(=O)N[C@@H](CO)C(=O)NCC(=O)N[C@@H](C)C(=O)N1CCC[C@H]1C(=O)N1CCC[C@H]1C(=O)N1CCC[C@H]1C(=O)N[C@@H](CO)C(N)=O [Compound 201] ({Isobutyryl(2-(3-CN-5-F-Ph))}-[NMeβAla]EGTFTSDYSI[Aib]LDKIAQK([AEEA-AEEA-γGlu-C20 diacid])AFVQWLIAGGPSSGAPPPS-NH2)
EC50 (GLP-1 receptor [1]): > 1000 nM | EC50 (GIP receptor [2]): > 1000 nM | EC50 (GLP-1 receptor [3]): 10 to 100 nM | Emax (GLP-1 receptor [3]): 108% | EC50 (GIP receptor [4]): 100 to 1000 nM | Emax (GIP receptor [4]): 107%

CC[C@H](C)[C@H](NC(=O)[C@H](CC(C)C)NC(=O)[C@H](Cc1c[nH]c2ccccc12)NC(=O)[C@H](CCC(N)=O)NC(=O)[C@@H](NC(=O)[C@H](Cc1ccccc1)NC(=O)[C@H](C)NC(=O)[C@H](CCCCNC(=O)COCCOCCNC(=O)COCCOCCNC(=O)CC[C@H](NC(=O)CCCCCCCCCCCCCCCCCCC(=O)O)C(=O)O)NC(=O)[C@H](CCC(N)=O)NC(=O)[C@H](C)NC(=O)[C@@H](NC(=O)[C@H](CCCCN)NC(=O)[C@H](CC(=O)O)NC(=O)[C@H](CC(C)C)NC(=O)C(C)(C)NC(=O)[C@@H](NC(=O)[C@H](CO)NC(=O)[C@H](Cc1ccc(O)cc1)NC(=O)[C@H](CC(=O)O)NC(=O)[C@H](CO)NC(=O)[C@@H](NC(=O)[C@H](Cc1ccccc1)NC(=O)[C@@H](NC(=O)CNC(=O)C[C@H](CCC(=O)O)NC(=O)CCNC(=O)C(C)(C)c1cc(F)cc(C#N)c1)[C@@H](C)O)[C@@H](C)O)[C@@H](C)CC)[C@@H](C)CC)C(C)C)C(=O)N[C@@H](C)C(=O)NCC(=O)NCC(=O)N1CCC[C@H]1C(=O)N[C@@H](CO)C(=O)N[C@@H](CO)C(=O)NCC(=O)N[C@@H](C)C(=O)N1CCC[C@H]1C(=O)N1CCC[C@H]1C(=O)N1CCC[C@H]1C(=O)N[C@@H](CO)C(N)=O [Compound 116] ({Isobutyryl(2-(3-CN-5-F-Ph))-βAla}-[β3hE]GTFTSDYSI[Aib]LDKIAQK([AEEA-AEEA-γGlu-C20 diacid])AFVQWLIAGGPSSGAPPPS-NH2)
EC50 (GLP-1 receptor [1]): > 1000 nM | EC50 (GIP receptor [2]): > 1000 nM | EC50 (GLP-1 receptor [3]): 10 to 100 nM | Emax (GLP-1 receptor [3]): 94% | EC50 (GIP receptor [4]): 100 to 1000 nM | Emax (GIP receptor [4]): 66%

CC[C@H](C)[C@H](NC(=O)[C@H](CC(C)C)NC(=O)[C@H](Cc1c[nH]c2ccccc12)NC(=O)[C@H](CCC(N)=O)NC(=O)[C@@H](NC(=O)[C@H](Cc1ccccc1)NC(=O)[C@H](C)NC(=O)[C@H](CCCCNC(=O)COCCOCCNC(=O)COCCOCCNC(=O)CC[C@H](NC(=O)CCCCCCCCCCCCCCCCCCC(=O)O)C(=O)O)NC(=O)[C@H](CCC(N)=O)NC(=O)[C@H](C)NC(=O)[C@@H](NC(=O)[C@H](CCCCN)NC(=O)[C@H](CC(=O)O)NC(=O)[C@H](CC(C)C)NC(=O)C(C)(C)NC(=O)[C@@H](NC(=O)[C@H](CO)NC(=O)[C@H](Cc1ccc(O)cc1)NC(=O)[C@H](CC(=O)O)NC(=O)[C@H](CO)NC(=O)[C@@H](NC(=O)[C@H](Cc1ccccc1)NC(=O)[C@@H](NC(=O)CNC(=O)[C@H](CCC(=O)O)NC(=O)CCNC(C)Cn1cc(Br)cn1)[C@@H](C)O)[C@@H](C)O)[C@@H](C)CC)[C@@H](C)CC)C(C)C)C(=O)N[C@@H](C)C(=O)NCC(=O)NCC(=O)N1CCC[C@H]1C(=O)N[C@@H](CO)C(=O)N[C@@H](CO)C(=O)NCC(=O)N[C@@H](C)C(=O)N1CCC[C@H]1C(=O)N1CCC[C@H]1C(=O)N1CCC[C@H]1C(=O)N[C@@H](CO)C(N)=O (stereo partly drawn) [Compound 274] (X45-EGTFTSDYSI[Aib]LDKIAQK([AEEA-AEEA-γGlu-C20 diacid])AFVQWLIAGGPSSGAPPPS-NH2)
EC50 (GLP-1 receptor [1]): > 1000 nM | EC50 (GIP receptor [2]): > 1000 nM | EC50 (GLP-1 receptor [3]): 10 to 100 nM | Emax (GLP-1 receptor [3]): 88% | EC50 (GIP receptor [4]): 100 to 1000 nM | Emax (GIP receptor [4]): 36%

CC[C@H](C)[C@H](NC(=O)[C@H](CC(C)C)NC(=O)[C@H](Cc1c[nH]c2ccccc12)NC(=O)[C@H](CCC(N)=O)NC(=O)[C@@H](NC(=O)[C@H](Cc1ccccc1)NC(=O)[C@H](C)NC(=O)[C@H](CCCCNC(=O)COCCOCCNC(=O)COCCOCCNC(=O)CC[C@H](NC(=O)CCCCCCCCCCCCCCCCCCC(=O)O)C(=O)O)NC(=O)[C@H](CCC(N)=O)NC(=O)[C@H](C)NC(=O)[C@@H](NC(=O)[C@H](CCCCN)NC(=O)[C@H](CC(=O)O)NC(=O)[C@H](CC(C)C)NC(=O)C(C)(C)NC(=O)[C@@H](NC(=O)[C@H](CO)NC(=O)[C@H](Cc1ccc(O)cc1)NC(=O)[C@H](CC(=O)O)NC(=O)[C@H](CO)NC(=O)[C@@H](NC(=O)[C@H](Cc1ccccc1)NC(=O)[C@@H](NC(=O)CNC(=O)[C@@H](CC(=O)O)NC(=O)CCNC(=O)C1(c2ccccc2)CNC(=O)C1)[C@@H](C)O)[C@@H](C)O)[C@@H](C)CC)[C@@H](C)CC)C(C)C)C(=O)N[C@@H](C)C(=O)NCC(=O)NCC(=O)N1CCC[C@H]1C(=O)N[C@@H](CO)C(=O)N[C@@H](CO)C(=O)NCC(=O)N[C@@H](C)C(=O)N1CCC[C@H]1C(=O)N1CCC[C@H]1C(=O)N1CCC[C@H]1C(=O)N[C@@H](CO)C(N)=O (stereo partly drawn) [Compound 122] ({X27-βAla}-[dD]GTFTSDYSI[Aib]LDKIAQK([AEEA-AEEA-γGlu-C20 diacid])AFVQWLIAGGPSSGAPPPS-NH2)
EC50 (GLP-1 receptor [1]): > 1000 nM | EC50 (GIP receptor [2]): < 1000 nM | EC50 (GLP-1 receptor [3]): 1 to 10 nM | Emax (GLP-1 receptor [3]): 100% | EC50 (GIP receptor [4]): 10 to 100 nM | Emax (GIP receptor [4]): 92%

CC[C@H](C)[C@H](NC(=O)[C@H](CC(C)C)NC(=O)[C@H](Cc1c[nH]c2ccccc12)NC(=O)[C@H](CCC(N)=O)NC(=O)[C@@H](NC(=O)[C@H](Cc1ccccc1)NC(=O)[C@H](C)NC(=O)[C@H](CCCCNC(=O)COCCOCCNC(=O)COCCOCCNC(=O)CC[C@H](NC(=O)CCCCCCCCCCCCCCCCCCC(=O)O)C(=O)O)NC(=O)[C@H](CCC(N)=O)NC(=O)[C@H](C)NC(=O)[C@@H](NC(=O)[C@H](CCCCN)NC(=O)[C@H](CC(=O)O)NC(=O)[C@H](CC(C)C)NC(=O)C(C)(C)NC(=O)[C@@H](NC(=O)[C@H](CO)NC(=O)[C@H](Cc1ccc(O)cc1)NC(=O)[C@H](CC(=O)O)NC(=O)[C@H](CO)NC(=O)[C@@H](NC(=O)[C@H](Cc1ccccc1)NC(=O)[C@@H](NC(=O)CNC(=O)[C@H](CCC(=O)O)NC(=O)CCNC(=O)C(C)(C)c1ccc(F)c(F)c1)[C@@H](C)O)[C@@H](C)O)[C@@H](C)CC)[C@@H](C)CC)C(C)C)C(=O)N[C@@H](C)C(=O)NCC(=O)NCC(=O)N1CCC[C@H]1C(=O)N[C@@H](CO)C(=O)N[C@@H](CO)C(=O)NCC(=O)N[C@@H](C)C(=O)N1CCC[C@H]1C(=O)N1CCC[C@H]1C(=O)N1CCC[C@H]1C(=O)N[C@@H](CO)C(N)=O [Compound 215] ({X17-βAla}-EGTFTSDYSI[Aib]LDKIAQK([AEEA-AEEA-γGlu-C20 diacid])AFVQWLIAGGPSSGAPPPS-NH2)
EC50 (GLP-1 receptor [1]): > 1000 nM | EC50 (GIP receptor [2]): < 1000 nM | EC50 (GLP-1 receptor [3]): 0.1 to 1 nM | Emax (GLP-1 receptor [3]): 98% | EC50 (GIP receptor [4]): 0.1 to 1 nM | Emax (GIP receptor [4]): 99%

Reference: patent US12281149B2, “Modulators of G-protein coupled receptors” (priority 2021, dated 2025)
